Article PMC2709467, “Synthesis of Novel 3-Aryl-N-Methyl-1,2,5,6-Tetrahydropyridine Derivatives by Suzuki coupling: As Acetyl Cholinesterase Inhibitors” (The Open Medicinal Chemistry Journal, 2007)

The compounds below were run against T1, Electric eel AChE (Electrophorus electricus, UniProt O42275) (assay: Ellman assay, […] nm). Settings: acetylthiocholine iodide substrate, phosphate buffer pH 8.0, 37 °C, 10 min preincubation; read-out: Electric eel AChE, IC50 nM.
T1 construct: native commercial enzyme from Sigma, no further details
Assay type: biochemical

T1 sequence (O42275 24-633): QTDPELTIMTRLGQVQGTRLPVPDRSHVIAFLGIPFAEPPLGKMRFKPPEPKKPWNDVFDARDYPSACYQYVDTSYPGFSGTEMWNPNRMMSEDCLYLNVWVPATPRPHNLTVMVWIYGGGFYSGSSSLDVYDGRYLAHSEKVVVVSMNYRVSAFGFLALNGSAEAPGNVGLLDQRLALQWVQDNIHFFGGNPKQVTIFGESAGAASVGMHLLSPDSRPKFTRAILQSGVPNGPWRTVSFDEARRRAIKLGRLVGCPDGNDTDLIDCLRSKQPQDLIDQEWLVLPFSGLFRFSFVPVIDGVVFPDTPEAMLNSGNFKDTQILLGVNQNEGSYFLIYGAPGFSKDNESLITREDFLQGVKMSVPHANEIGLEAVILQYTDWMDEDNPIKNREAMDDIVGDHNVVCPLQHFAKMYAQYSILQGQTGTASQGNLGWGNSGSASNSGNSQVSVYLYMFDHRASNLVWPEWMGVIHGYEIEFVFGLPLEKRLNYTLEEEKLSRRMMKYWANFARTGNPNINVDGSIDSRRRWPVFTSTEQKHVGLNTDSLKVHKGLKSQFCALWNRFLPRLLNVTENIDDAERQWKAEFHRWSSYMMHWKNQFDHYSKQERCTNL

Structure (SMILES)	IC50
CN1CCC=C(c2ccc(C(F)(F)F)cc2)C1 [5a, 3-[4-(trifluoromethyl)phenyl]-1,2,5,6-tetrahydro-1-methylpyridine]	49.5 nM
CN1CCC=C(c2ccc(C#N)cc2)C1 [5b, 3-(4-cyanophenyl)-1,2,5,6-tetrahydro-1-methylpyridine]	64 nM
CN1CCC=C(c2ccc(Cl)cc2)C1 [5d, 3-(4-chlorophenyl)-1,2,5,6-tetrahydro-1-methylpyridine]	806 nM
CN1CCC=C(c2c(Cl)cccc2Cl)C1 [5f, 3-(2,6-dichlorophenyl)-1,2,5,6-tetrahydro-1-methylpyridine]	678 nM
CN1CCC=C(c2ccc(Oc3ccccc3)cc2)C1 [5g, 3-(4-phenoxyphenyl)-1,2,5,6-tetrahydro-1-methylpyridine]	1230 nM
CN1CCC=C(c2ccc(-c3ccccc3)c(F)c2)C1 [5h, 3-(2-fluoro-biphenyl-4-yl)-1-methyl-1,2,5,6-tetrahydropyridine]	118 nM
CCOc1cccc(C2=CCCN(C)C2)c1 [5j, 3-(3-ethoxyphenyl)-1,2,5,6-tetrahydro-1-methylpyridine]	1230 nM
CN1CCC=C(c2cccc(Cl)c2F)C1 [5k, 3-(3-chloro-2-fluoro-phenyl)-1-methyl-1,2,5,6-tetrahydropyridine]	182 nM

Same assay, conditions: read-out: Electric eel AChE, IC50 nM; acetylthiocholine iodide substrate, phosphate buffer pH 8.0, 37 °C, 10 min preincubation

Structure (SMILES)	IC50
CN(C)C(=O)Oc1cccc([N+](C)(C)C)c1 [Neostigmine, reference compound]	36.5 nM

The compounds below were run on T2, Human Serum AChE (assay: Ellman assay, […] nm). Settings: acetylthiocholine iodide substrate, phosphate buffer pH 8.0, 37 °C, 10 min preincubation.
T2 construct: crude supernatant of citrated fresh blood (plasma), not purified
Assay type: biochemical

Structure (SMILES)	IC50
CN1CCC=C(c2ccc(C(F)(F)F)cc2)C1 [5a, 3-[4-(trifluoromethyl)phenyl]-1,2,5,6-tetrahydro-1-methylpyridine]	52 nM
CN1CCC=C(c2ccc(C#N)cc2)C1 [5b, 3-(4-cyanophenyl)-1,2,5,6-tetrahydro-1-methylpyridine]	68 nM
CN1CCC=C(c2ccc(Cl)cc2)C1 [5d, 3-(4-chlorophenyl)-1,2,5,6-tetrahydro-1-methylpyridine]	784 nM
COc1ccc(C2=CCCN(C)C2)cc1 [5e, 3-(4-methoxyphenyl)-1,2,5,6-tetrahydro-1-methylpyridine]	2880 nM
CN1CCC=C(c2c(Cl)cccc2Cl)C1 [5f, 3-(2,6-dichlorophenyl)-1,2,5,6-tetrahydro-1-methylpyridine]	729 nM
CN1CCC=C(c2ccc(Oc3ccccc3)cc2)C1 [5g, 3-(4-phenoxyphenyl)-1,2,5,6-tetrahydro-1-methylpyridine]	1350 nM
CN1CCC=C(c2ccc(-c3ccccc3)c(F)c2)C1 [5h, 3-(2-fluoro-biphenyl-4-yl)-1-methyl-1,2,5,6-tetrahydropyridine]	116 nM
CCOc1cccc(C2=CCCN(C)C2)c1 [5j, 3-(3-ethoxyphenyl)-1,2,5,6-tetrahydro-1-methylpyridine]	1220 nM
CN1CCC=C(c2cccc(Cl)c2F)C1 [5k, 3-(3-chloro-2-fluoro-phenyl)-1-methyl-1,2,5,6-tetrahydropyridine]	170 nM
CN(C)C(=O)Oc1cccc([N+](C)(C)C)c1 [Neostigmine, reference compound]	39.2 nM
